US6251894A, “1-(1,2-disubstituted piperidinyl)-4 (fused imidazole)-piperidine derivatives” (Janssen Pharmaceuticals N.V., priority 1995, dated 2001)
Like-named read-outs stand apart in the source and are kept apart here.

Experiments:
[1] = test system: Substance P Induced Plasma Extravasation; assay: Antagonism of substance P induced plasma extravasation in guinea-pigs; format: in vivo, guinea-pig; details: Cavia porcellus, 1 hour prior to substance P
Procedure: Antagonism of Substance P Induced Plasma Extravasation in Guinea-pigs
Plasma travasation was induced by injection of substance P (2 mg/kg) in the femoral artery of female guinea-pigs. Evans Blue dye (30 mg/kg) was injected simultaneously. The test compound or solvent was administered subcutaneous (s.c.) or orally (p.o.) 1 hour prior to substance P injection. 10 minutes after challenge, the animals were checked for blue colouring (a direct measure for plasma extravasation) of the nose, the forepaws, and the conjunctiva. 30 minutes after challenge, the animals were sacrificed by CO2 gas inhalation and checked for blue colouring of the trachea and the urinary bladder. […]

[2] = test system: Substance P Induced Relaxation of the Pig Coronary Arteries; assay: Antagonism of substance P induced relaxation of the pig coronary arteries; details: 30 min incubation
Procedure: Antagonism of Substance P Induced Relaxation of the Pig Coronary Arteries
Segments of coronary arteries taken from pigs (killed by injection of an overdose of sodium pentobarbital) were inverted and mounted for recording of isometric tension in organ baths (volume 20 ml) with the endothelium at the outside. The preparations were bathed in Krebs-Henseleit solution. The solution was kept at 37° C. and gassed with a mixture of O2 /CO2 (95/5). After stabilisation of the preparations, prostaglandin F2α (10^-5 M) was administered to induce a contraction. This was repeated until contractile responses became stable. Then prostaglandin F2α was again administered and substance P (3×10^-10 M and 10^-9 M cumulatively) was added. Substance P induced endothelium dependent relaxations. After washing away the agonists, a known concentration of a compound of formula (I) was added. After an incubation period of 30 minutes, prostaglandin F2α (10^-5 M) and the same concentrations of substance P as described above were again administered in the presence of the compound to be tested.

[3] = sc, 10 min, s.c., conjunctiva, read-out: lowest active dose (LAD), conjunctiva
[4] = sc, 10 min, s.c., forepaws, read-out: lowest active dose (LAD), forepaws
[5] = sc, 10 min, s.c., nose, read-out: lowest active dose (LAD), nose
[6] = sc, 0.5 h, s.c., trachea, read-out: lowest active dose (LAD), trachea
[7] = sc, 0.5 h, s.c., urinary bladder, read-out: lowest active dose (LAD), urinary bladder
[8] = test compound concentration 3 × 10^-9 (unit not given)
[9] = po, 10 min, p.o., conjunctiva, read-out: lowest active dose (LAD), conjunctiva
[10] = po, 10 min, p.o., forepaws, read-out: lowest active dose (LAD), forepaws
[11] = po, 10 min, p.o., nose, read-out: lowest active dose (LAD), nose
[12] = po, 0.5 h, p.o., trachea, read-out: lowest active dose (LAD), trachea
[13] = po, 0.5 h, p.o., urinary bladder, read-out: lowest active dose (LAD), urinary bladder
[14] = test compound concentration 3 × 10^-8 (unit not given)

SMILES | minimal effective dose [1, 3] [mg/kg] | minimal effective dose [1, 4] [mg/kg] | minimal effective dose [1, 5] [mg/kg] | minimal effective dose [1, 6] [mg/kg] | minimal effective dose [1, 7] [mg/kg] | % inhibition of the response to 10^-9 M substance P [2, 8] [%] | minimal effective dose [1, 9] [mg/kg] | minimal effective dose [1, 10] [mg/kg] | minimal effective dose [1, 11] [mg/kg] | minimal effective dose [1, 12] [mg/kg] | minimal effective dose [1, 13] [mg/kg] | % inhibition of the response to 10^-9 M substance P [2, 14] [%]
Cc1cc(C)cc(C(=O)N2CC[C@H](N3CCC(=C4c5ccsc5C(=O)Cn5ccnc54)CC3)C[C@@H]2Cc2ccccc2)c1 (relative stereo) [Compound 111] | 10 | 10 | 10 | 10 | 10 | 22.6 | – | – | – | – | – | –
Cc1cc(C)cc(C(=O)N2CC[C@@H](N3CCC(=C4c5ccsc5C(=O)Cn5ccnc54)CC3)C[C@@H]2Cc2ccccc2)c1 (relative stereo) [Compound 112] | 0.63 | 0.63 | 0.63 | 10 | 2.5 | 66.7 | – | – | – | – | – | –
O=C1Cn2ccnc2C(=C2CCN([C@H]3CCN(C(=O)c4cc(C(F)(F)F)cc(C(F)(F)F)c4)[C@@H](Cc4ccccc4)C3)CC2)c2ccsc21 (relative stereo) [Compound 106] | – | – | – | – | – | 92.3 | 10 | 10 | 10 | 10 | 10 | –
Cc1cc(C)cc(C(=O)N2CC[C@@H](N3CCC(C4c5ccccc5CCn5ccnc54)CC3)C[C@H]2Cc2ccccc2)c1 (stereo partly drawn) [Compound 26] | 10 | 10 | 10 | 10 | 10 | 25.6 | – | – | – | – | – | –
Cc1cnc2n1CCc1ccccc1C2=C1CCN([C@H]2CCN(C(=O)c3cc(C(F)(F)F)cc(C(F)(F)F)c3)[C@H](Cc3ccccc3)C2)CC1 (relative stereo) [Compound 54] | 2.5 | 2.5 | 2.5 | 2.5 | 2.5 | 69.8 | – | – | – | – | – | –
Cc1cc(C)cc(C(=O)N2CC[C@@H](N3CCC4(CC3)c3ccccc3CCn3ccnc34)C[C@@H]2Cc2ccccc2)c1 (relative stereo) [Compound 120] | 2.5 | 2.5 | 2.5 | 10 | 10 | 7.7 | – | – | – | – | – | –
O=Cc1cnc2n1CCc1ccccc1C2=C1CCN([C@@H]2CCN(C(=O)c3cc(C(F)(F)F)cc(C(F)(F)F)c3)[C@@H](Cc3ccccc3)C2)CC1 (relative stereo) [Compound 16] | 2.5 | 2.5 | 2.5 | 10 | 10 | 98.9 | – | – | – | – | – | –
O=C(c1cc(C(F)(F)F)cc(C(F)(F)F)c1)N1CC[C@@H](N2CCC(C3c4ccccc4Cn4c3nc3ccccc34)CC2)C[C@H]1Cc1ccccc1 (mixture of isomers) [Compound 14, (±)-cis-1-[3,5-bis(trifluoromethyl)benzoyl]-4-[4-(6,11-dihydrobenzimidazo[1,2-b]isoquinolin-6-yl)-1-piperidinyl]-2-phenylmethyl)piperidine] | – | – | – | – | – | 56.6 | 10 | 10 | 10 | 10 | 10 | –
O=C1Cn2ccnc2C(=C2CCN([C@@H]3CCN(C(=O)c4cc(C(F)(F)F)cc(C(F)(F)F)c4)[C@@H](Cc4ccccc4)C3)CC2)c2ccsc21 (relative stereo) [Compound 107] | – | – | – | – | – | 96.3 | 10 | 10 | 10 | 10 | 10 | –
O=Cc1cnc2n1CCc1ccccc1C2=C1CCN([C@H]2CCN(C(=O)c3cc(C(F)(F)F)cc(C(F)(F)F)c3)[C@@H](Cc3ccccc3)C2)CC1 (racemic) [Compound 11, (±)-cis-1-[3,5-bis(trifluoromethyl)benzoyl]-4-[4-(3-formyl-5,6-dihydro-11H-imidazo[2,1-b][3]benzazepin-11-ylidene)-1-piperidinyl]-2-(phenylmethyl)piperidine] | – | – | – | – | – | 96.1 | 10 | 10 | 10 | 10 | 10 | –
O=C(c1cc(C(F)(F)F)cc(C(F)(F)F)c1)N1CC[C@H](N2CCC(=C3c4ccccc4CCn4c3nc(CO)c4CO)CC2)C[C@@H]1Cc1ccccc1 (relative stereo) [Compound 52] | 2.5 | 2.5 | 2.5 | 10 | 2.5 | 77.8 | – | – | – | – | – | –
Cc1cc(C)cc(C(=O)N2CC[C@@H](N3CCC(=C4c5ccccc5CCn5c(C=O)cnc54)CC3)C[C@@H]2Cc2ccccc2)c1 (relative stereo) [Compound 25] | 2.5 | 2.5 | 2.5 | 10 | 10 | 100.0 | – | – | – | – | – | –
Cc1cc(C)cc(C(=O)N2CC[C@H](N3CCC(=C4c5ccccc5CCn5ccnc54)CC3)C[C@H]2Cc2ccccc2)c1 (relative stereo) [Compound 41] | 2.5 | 10 | 10 | 10 | 10 | 40.6 | – | – | – | – | – | –
Cc1cc(C)cc(C(=O)N2CC[C@H](N3CCC(=C4c5ccccc5CCn5ccnc54)CC3)C[C@@H]2Cc2ccccc2)c1 (racemic) [Compound 1, (±)-cis-4-[4-(5,6-dihydro-11H-imidazo [2,1-b][3]benzazepin-11-ylidene)-1-piperidinyl]-1-(3,5-dimethylbenzoyl)-2-(phenylmethyl)piperidine] | 10 | 10 | 10 | 10 | 10 | – | – | – | – | – | – | 52.3
COC(=O)c1cnc2n1CCc1ccccc1C2=C1CCN([C@H]2CCN(C(=O)c3cc(C(F)(F)F)cc(C(F)(F)F)c3)[C@@H](Cc3ccccc3)C2)CC1 (racemic) [Compound 17, (±)-methyl cis-11-[1-[1-[3,5-bis(trifluoromethyl)benzoyl]-2-(phenylmethyl)-4-piperidinyl]-4-piperidinylidene]-6,11-dihydro-5H-imidazo[2,1-b][3]benzazepine-3-carboxylate] | – | – | – | – | – | 35.3 | 10 | 10 | 10 | 10 | 10 | –
O=C(c1cc(C(F)(F)F)cc(C(F)(F)F)c1)N1CC[C@@H](N2CCC(C3c4ccccc4Cn4c3nc3ccccc34)CC2)C[C@@H]1Cc1ccccc1 (mixture of isomers) [Compound 15, (±)-trans-1-[3,5-bis(trifluoromethyl)benzoyl]-4-[4-(6,11-dihydrobenzimidazo[1,2-b]isoquinolin-6-yl)-1-piperidinyl]-2-phenylmethyl)piperidine] | – | – | – | – | – | – | 10 | 10 | 10 | 10 | 10 | 95.4
Cc1cc(C)cc(C(=O)N2CC[C@H](N3CCC(=C4c5sccc5CCn5ccnc54)CC3)C[C@H]2Cc2ccccc2)c1 (relative stereo) [Compound 37] | 2.5 | 2.5 | 2.5 | 10 | 10 | 81.9 | – | – | – | – | – | –
O=C(c1cc(C(F)(F)F)cc(C(F)(F)F)c1)N1CC[C@@H](N2CCC(C3c4ccccc4CCn4ccnc43)CC2)C[C@@H]1Cc1ccccc1 (stereo partly drawn) [Compound 8] | 10 | 2.5 | 2.5 | 10 | 10 | 82.3 | – | – | – | – | – | –
